Results: patent publication US9883999B2, “Method for solubilizing rutin with polyhydroxy alkyl alcohols” (Colgate-Palmolive Company, priority 2013, dated 2018)

Tests used:
[1] = system: exfoliated human oral mucosal cells; assay: Protective (anti-oxidation) efficacy of rutin solutions by cell staining method (Janus Green B, H2O2/Fe2+ challenge); format: cell-based; settings: larger ΔE*a,b = stronger protection
Description: Rutin is dissolved in water to prepare a range of different levels of rutin solution. The protective efficacy of rutin solutions is measured using a cell staining method. In this method, the morphology of exfoliated human oral mucosal cells contacted with various concentrations of rutin is disclosed with Janus Green B dye. Photographic digital images are obtained using a light microscope with a 40× or 100× objective lenses connected to a digital camera. The color difference between the cell plasma and the area outside the cell, ΔE*a,b, is determined using the CIE L*a*b* system. The larger the ΔE*a,b value, the stronger the protective efficacy. The method includes the following steps: • 1. Human mucosal cells are collected and mixed with 1 mL Ringer solution, 0.5 mL Fe^2+ and 0.5 mL HAc—Ac buffer in a 5 mL Eppendorf tube. • 2. The cell suspension is then equally divided into two tubes. To the first tube is added 0.2 mL of 20 mM H2O2. To the second tube is added 0.2 mL Ringer solution. • 3. After 10 min, one drop of the above treated samples is placed on a microscope slide and stained with one drop of 0.1% Janus Green B for 1 h or longer. • 4. After staining, the cells are observed under the light microscope. Digital images are also acquired and ΔE*a, b is measured.

[2] = Initial evaluation of solubilizing agents for rutin by relative clarity of the solutions; format: physicochemical; settings: 0.5% rutin added to 10 g of each test solubilizer; propylene glycol best, sorbitol worst

C[C@@H]1O[C@@H](OC[C@H]2O[C@@H](Oc3c(-c4ccc(O)c(O)c4)oc4cc(O)cc(O)c4c3=O)[C@H](O)[C@@H](O)[C@@H]2O)[C@H](O)[C@H](O)[C@H]1O [rutin, 2-(3,4-dihydroxyphenyl)-5,7-dihydroxy-3-[α-L-rhamnopyranosyl-(1→6)-β-D-glucopyranosyloxy]-4H-chromen-4-one]
Protective efficacy (ΔE*a, b) ([1]; rutin concentration 0.5 mM in water): 5.5 | Protective efficacy (ΔE*a, b) ([1]; rutin concentration 1.0 mM in water): 24.7 | Protective efficacy (ΔE*a, b) ([1]; rutin concentration 2.0 mM in water): 38.9 | solubility capability of the humectants, ranked [2]: propylene glycol>>glycerin>PEG600≈PEG-40 hydrogenated castor oil>sorbitol
